In US7915281B2, “Isoxazole, dihydroisoxazole, and oxadiazole substituted imidazo ring compounds and method” (3M Innovative Properties Company, priority 2004, dated 2011):

Row | melting point [°C] | Compound
1 | 208 to 209 | CCCc1nc2c(N)nc3ccccc3c2n1CCc1cc(-c2ccc(F)cc2)no1 [Example 34, 1-{2-[3-(4-Fluorophenyl)isoxazol-5-yl]ethyl}-2-propyl-1H-imidazo[4,5-c]quinolin-4-amine]
2 | 189 to 191 | CCOCc1nc2c(N)nc(C)c(C)c2n1Cc1cc(-c2cccnc2)no1 [Example 9, 2-(Ethoxymethyl)-6,7-dimethyl-1-[(3-pyridin-3-ylisoxazol-5-yl)methyl]-1H-imidazo[4,5-c]pyridin-4-amine]
3 | 204 to 205 | CCOCc1nc2c(N)nc3ccccc3c2n1CC1CC(C)=NO1 (stereo not shown) [Example 1, 2-(Ethoxymethyl)-1-[(3-methyl-4,5-dihydroisoxazol-5-yl)methyl]-1H-imidazo[4,5-c]quinolin-4-amine]
4 | 240 to 242 | CCOCc1nc2c(N)nc3ccccc3c2n1Cc1cc(-c2cccnc2)no1 [Example 5, 2-(Ethoxymethyl)-1-[(3-pyridin-3-ylisoxazol-5-yl)methyl]-1H-imidazo[4,5-c]quinolin-4-amine]
5 | 235 to 237 | CCOCc1nc2c(N)nc3ccccc3c2n1CC1CC(c2ccccc2)=NO1 (stereo not shown) [Example 2, 2-(Ethoxymethyl)-1-[(3-phenyl-4,5-dihydroisoxazol-5-yl)methyl]-1H-imidazo[4,5-c]quinolin-4-amine]
6 | 163 to 164 | CCOCc1nc2c(N)nc3ccccc3c2n1CCCc1cc(C)no1 [Example 8, 2-(Ethoxymethyl)-1-[3-(3-methylisoxazol-5-yl)propyl]-1H-imidazo[4,5-c]quinolin-4-amine]
7 | 221 to 223 | CCOCc1nc2c(N)nc3ccccc3c2n1Cc1cc(-c2ccccc2)on1 [Example 37, 2-(Ethoxymethyl)-1-[(5-phenylisoxazol-3-yl)methyl]-1H-imidazo[4,5-c]quinolin-4-amine]
8 | 204 to 205 | CCOCc1nc2c(N)nc3ccccc3c2n1CCN1C(C)=NOC1(C)C [Example 10, 2-Ethoxymethyl-1-[2-(3,5,5-trimethyl-1,2,4-oxadiazol-4(5H)-yl)ethyl]-1H-imidazo[4,5-c]quinolin-4-amine]
9 | 219 to 220 | Fc1ccc(-c2cc(Cn3cnc4c(Cl)nc5ccccc5c43)on2)cc1 [Example 24, 4-Chloro-1-{[3-(4-fluorophenyl)isoxazol-5-yl]methyl}-1H-imidazo[4,5-c]quinoline]
10 | 164 to 165 | Cc1nc(N)c2nc(CO)n(Cc3cc(-c4ccc(F)cc4)no3)c2c1C [Example 20, (4-Amino-1-{[3-(4-fluorophenyl)isoxazol-5-yl]methyl}-6,7-dimethyl-1H-imidazo[4,5-c]pyridin-2-yl)methanol]
11 | 265 to 266 | Nc1nc2cccnc2c2c1ncn2Cc1cc(-c2ccc(F)cc2)no1 [Example 11, 1-{[3-(4-Fluorophenyl)isoxazol-5-yl]methyl}-1H-imidazo[4,5-c][1,5]naphthyridin-4-amine]
12 | 206 to 207 | CCCc1nc2c(N)nc3ccccc3c2n1Cc1cc(-c2cccnc2)on1 [Example 36, 2-Propyl-1-[(5-pyridin-3-ylisoxazol-3-yl)methyl]-1H-imidazo[4,5-c]quinolin-4-amine]
13 | 244 to 246 | Cc1nc(N)c2ncn(Cc3cc(-c4ccc(F)cc4)no3)c2c1C [Example 18, 1-{[3-(4-Fluorophenyl)isoxazol-5-yl]methyl}-6,7-dimethyl-1H-imidazo[4,5-c]pyridin-4-amine]
14 | 189 to 190 | CCOCc1nc2c(Cl)nc3ccccc3c2n1Cc1cc(-c2ccc(F)cc2)no1 [Example 29, 4-Chloro-2-(ethoxymethyl)-1-{[3-(4-fluorophenyl)isoxazol-5-yl]methyl}-1H-imidazo[4,5-c]quinoline]
15 | 259 to 260 | Nc1nc2ccccc2c2c1ncn2Cc1cc(-c2ccc(F)cc2)no1 [Example 25, 1-{[3-(4-Fluorophenyl)isoxazol-5-yl]methyl}-1H-imidazo[4,5-c]quinolin-4-amine]
16 | 171 to 172 | CCOCc1nc2c(N)nc3ccccc3c2n1CCCc1cc(-c2ccccc2)no1 [Example 7, 2-(Ethoxymethyl)-1-[3-(3-phenylisoxazol-5-yl)propyl]-1H-imidazo[4,5-c]quinolin-4-amine]
17 | 227 to 229 | CCCc1nc2c(N)nc(C)c(C)c2n1Cc1cc(-c2ccc(F)cc2)no1 [Example 23, 1-{[3-(4-Fluorophenyl)isoxazol-5-yl]methyl}-6,7-dimethyl-2-propyl-1H-imidazo[4,5-c]pyridin-4-amine]
18 | 246 to 247 | CCOCc1nc2c(N)nc(C)c(C)c2n1Cc1cc(-c2ccc(F)cc2)no1 [Example 19, 2-(Ethoxymethyl)-1-{[3-(4-fluorophenyl)isoxazol-5-yl]methyl}-6,7-dimethyl-1H-imidazo[4,5-c]pyridin-4-amine]
19 | 192 to 193 | Nc1nc2ccccc2c2c1nc(CF)n2Cc1cc(-c2ccc(F)cc2)no1 [Example 32, 2-(Fluoromethyl)-1-{[3-(4-fluorophenyl)isoxazol-5-yl]methyl}-1H-imidazo[4,5-c]quinolin-4-amine]

Row | melting point [°C] | Compound
20 | 278 to 279 | Cc1nc(N)c2nc(C)n(Cc3cc(-c4ccc(F)cc4)no3)c2c1C [Example 22, 1-{[3-(4-Fluorophenyl)isoxazol-5-yl]methyl}-2,6,7-trimethyl-1H-imidazo[4,5-c]pyridin-4-amine]
21 | 262 to 263 | Nc1nc2ccccc2c2c1nc(CO)n2Cc1cc(-c2ccc(F)cc2)no1 [Example 31, (4-Amino-1-{[3-(4-fluorophenyl)isoxazol-5-yl]methyl}-1H-imidazo[4,5-c]quinolin-2-yl)methanol]
22 | 232 to 233 | CCc1nc2c(N)nc3ccccc3c2n1Cc1cc(-c2ccc(F)cc2)no1 [Example 26, 2-Ethyl-1-{[3-(4-fluorophenyl)isoxazol-5-yl]methyl}-1H-imidazo[4,5-c]quinolin-4-amine]
23 | 238 to 239 | CCCc1nc2c(N)nc3cccnc3c2n1Cc1cc(-c2ccc(F)cc2)no1 [Example 14, 1-{[3-(4-Fluorophenyl)isoxazol-5-yl]methyl}-2-propyl-1H-imidazo[4,5-c][1,5]naphthyridin-4-amine]
24 | 178 to 180 | CCOCc1nc2c(N)nc3ccccc3c2n1Cc1cc(C)no1 [Example 4, 2-(Ethoxymethyl)-1-[(3-methylisoxazol-5-yl)methyl]-1H-imidazo[4,5-c]quinolin-4-amine]
25 | 215 to 216 | CCOCc1nc2c(N)nc3ccccc3c2n1Cc1cc(-c2ccccc2)no1 [Example 3, 2-(Ethoxymethyl)-1-[(3-phenylisoxazol-5-yl)methyl]-1H-imidazo[4,5-c]quinolin-4-amine]
26 | 211 to 213 | CCOCc1nc2c(N)nc3ccccc3c2n1CCN1C(C)=NOC12CCCC2 [Example 16, 2-(Ethoxymethyl)-1-[2-(3-methyl-1-oxa-2,4-diazaspiro[4,4]non-2-en-4-yl)ethyl]-1H-imidazo[4,5-c]quinolin-4-amine]
27 | 227 to 228 | Nc1nc2c(c3c1ncn3Cc1cc(-c3ccc(F)cc3)no1)NCCC2 [Example 17, 1-{[3-(4-Fluorophenyl)isoxazol-5-yl]methyl}-6,7,8,9-tetrahydro-1H-imidazo[4,5-c][1,5]naphthyridin-4-amine]
28 | 180 to 181 | CCOCc1nc2c(N)nc3ccccc3c2n1CCc1cc(-c2ccc(F)cc2)no1 [Example 33, 2-(Ethoxymethyl)-1-{2-[3-(4-fluorophenyl)isoxazol-5-yl]ethyl}-1H-imidazo[4,5-c]quinolin-4-amine]
29 | 203 to 204 | CCOCc1nc2c(N)nc3ccccc3c2n1Cc1cc(-c2ccc(F)cc2)no1 [Example 30, 2-(Ethoxymethyl)-1-{[3-(4-fluorophenyl)isoxazol-5-yl]methyl}-1H-imidazo[4,5-c]quinolin-4-amine]
30 | 226 to 227 | CCCc1nc2c(N)nc3ccccc3c2n1Cc1cc(-c2ccc(F)cc2)no1 [Example 27, 1-{[3-(4-Fluorophenyl)isoxazol-5-yl]methyl}-2-propyl-1H-imidazo[4,5-c]quinolin-4-amine]
31 | 239 to 240 | Cc1nc2c(N)nc3cccnc3c2n1Cc1cc(-c2ccc(F)cc2)no1 [Example 13, 1-{[3-(4-Fluorophenyl)isoxazol-5-yl]methyl}-2-methyl-1H-imidazo[4,5-c][1,5]naphthyridin-4-amine]
32 | 255 to 256 | CCc1nc2c(N)nc(C)c(C)c2n1Cc1cc(-c2ccc(F)cc2)no1 [Example 21, 2-Ethyl-1-{[3-(4-fluorophenyl)isoxazol-5-yl]methyl}-6,7-dimethyl-1H-imidazo[4,5-c]pyridin-4-amine]
33 | 190 to 191 | CCOCc1nc2c(N)nc3cccnc3c2n1Cc1cc(-c2ccc(F)cc2)no1 [Example 12, 2-(Ethoxymethyl)-1-{[3-(4-fluorophenyl)isoxazol-5-yl]methyl}-1H-imidazo[4,5-c][1,5]naphthyridin-4-amine]
34 | 247 to 248 | Nc1nc2cccnc2c2c1nc(CO)n2Cc1cc(-c2ccc(F)cc2)no1 [Example 15, (4-Amino-1-{[3-(4-fluorophenyl)isoxazol-5-yl]methyl}-1H-imidazo[4,5-c][1,5]naphthyridin-2-yl)methanol]
35 | 199 to 200 | CCOCc1nc2c(N)nc3ccccc3c2n1CCCc1cc(-c2cccnc2)no1 [Example 6, 2-(Ethoxymethyl)-1-[3-(3-pyridin-3-ylisoxazol-5-yl)propyl]-1H-imidazo[4,5-c]quinolin-4-amine]
36 | 201 to 203 | CCCCc1cc(Cn2cnc3c(N)nc4ccccc4c32)no1 [Example 35, 1-[(5-Butylisoxazol-3-yl)methyl]-1H-imidazo[4,5-c]quinolin-4-amine]
37 | 294 to 296 | Cc1nc2c(N)nc3ccccc3c2n1Cc1cc(-c2ccc(F)cc2)no1 [Example 28, 1-{[3-(4-Fluorophenyl)isoxazol-5-yl]methyl}-2-methyl-1H-imidazo[4,5-c]quinolin-4-amine]
